Assay results from PMC4649711, “In1-ghrelin splicing variant is overexpressed in pituitary adenomas and increases their aggressive features” (Scientific Reports, 2015).
Entries after “also recorded” stand apart in the source; their conditions may differ.

Assays:
GH-omas = experiment: GH secretion from GH-oma primary cultures; type: cell-based, human; conditions: 100 nM; 4 h and 24 h; ELISA; % of vehicle; n = 3–7
Procedure: (§1) Pituitary adenoma specimens were dispersed into single cells by enzymatic and mechanical disruption and cultured onto tissue culture plates in serum containing medium, as previously described. Briefly, pituitary samples were resected by endoscopic transsphenoidal surgery and transferred to sterile cold (4°C) culture medium (S-MEM, Gibco, Madrid, Spain) supplemented with 0.1% BSA, 0.01% L-glutamine, 1% antibiotic-antimycotic solution, and 2.5% HEPES. Samples were minced under sterile conditions into 1–2 mm^3 pieces. […]
(§2) To examine the effects of ghrelin system components (4- and/or 24 h-incubation) on pituitary hormone release from primary pituitary adenoma and/or AtT-20 cell line, 100,000–200,000 cell/well were used. As previously reported, hormone concentrations were measured in the culture media derived from human samples according to the pituitary adenoma type using commercial ELISAs [growth hormone, GH; adrenocorticotropin, ACTH; and prolactin, PRL (reference numbers: EIA-3552, EIA-3647 and EIA-1291, respectively; DRG, Mountainside, NJ, USA)] following the manufacturer's instructions. […]

pituitary adenoma cells = experiment: cell viability in all pituitary adenoma subtypes, peptide treatment; type: cell-based, human; conditions: 100 nM, 24-, 48- and/or 72-h, alamar-blue
Procedure: (§3) Pituitary adenoma specimens were dispersed into single cells by enzymatic and mechanical disruption and cultured onto tissue culture plates in serum containing medium, as previously described. Briefly, pituitary samples were resected by endoscopic transsphenoidal surgery and transferred to sterile cold (4°C) culture medium (S-MEM, Gibco, Madrid, Spain) supplemented with 0.1% BSA, 0.01% L-glutamine, 1% antibiotic-antimycotic solution, and 2.5% HEPES. Samples were minced under sterile conditions into 1–2 mm^3 pieces. Some pieces were stored at −80°C for posterior RNA isolation and, when possible, the remaining tissue samples were washed and incubated in 30 mL S-MEM medium supplemented 0.3% trypsin (Beckson, Dickinson and Company, Sparks, MD, USA) in a spinner flask (Bellco Glass, Vineland, NJ, USA) for 2 h of gentle shaking at 37°C and then, incubation was continued for another 5 min in presence of 1 mg of DNAse I (Roche, Mannheim, Germany). Dispersed cells were decanted by centrifugation and then, by repeated aspiration into a smoothtipped glass Pasteur pipette. […]
(§4) As previously reported, cell viability was estimated using alamar-blue reagent (10,000 cells/well-plate; Biosource International, Camarillo, CA, USA)[30][50][52]. […] Reduction of alamar-blue reagent was quantified exciting at 560 nm and reading at 590 nm using the FlexStation III system (Molecular Devices, Sunnyvale, CA, USA). […]

[1] = tested on: other endocrine cell types (e.g. pancreatic cells); parameters: method as in PMID 17068144; conditions: cited from earlier work
ACTH-omas [2] = experiment: cell viability of ACTH-oma primary cultures, peptide treatment; type: cell-based, human; conditions: 100 nM, 24 h, alamar-blue, n = 2–8
Procedure: as §3, §4

ACTH-omas [3] = tested on: ACTH-omas; parameters: method as in PMID 17280594; conditions: previous data; cited from earlier work
p-ERK1/2 = experiment: ERK1/2 phosphorylation by western blot in GH-omas; type: cell-based, human; conditions: 100 nM, 8 minutes, p-ERK1/2/total ERK1/2 vs vehicle (100%), n = 4
Procedure: as §3, with “pipette. Cells suspensions were washed once in 4.5 g/L glucose containing DMEM medium (Gibco, Madrid, Spain) supplemented with 0.1% BSA, 0.01% L-glutamine, 1% antibiotic-antimycotic solution, and 2.5% HEPES.” for “pipette.”

NFPAs = experiment: cell viability of NFPA primary cultures, peptide treatment; type: cell-based, human; conditions: 100 nM, alamar-blue, n = 3–15
Procedure: as §3, §4

ACTH-omas [4] = experiment: ACTH secretion from ACTH-oma primary cultures; type: cell-based, human; conditions: 100 nM; 24 h; ELISA; % of vehicle; n = 3–9
Procedure: as §1, §2

AtT-20 cell line = experiment: ACTH secretion from AtT-20 cell line; type: cell-based, mouse; conditions: 4 h, 3–5 independent experiments
Procedure: The mouse corticotroph pituitary derived cell line AtT-20/D16v-F2 (ATCC® CRL-1795) was cultured and maintained in Dulbecco's Modified Eagle's Medium (DMEM) complemented with 10% FBS, 100 U/ml penicillin/streptomycin, 0.024 M of 2-(4(2-hydroxyethyl)-1-piperazine)-ethane sulfonic acid (HEPES), and maintained at 37°C and 5% CO2, under sterile conditions. CHO-K1 cell line(ATCC® CCL-61) expressing recombinant human GHSR1a (GenBank accession number U60179) or GHSR1b (GenBank accession number U60181) were cultured and maintained in Ham's F12 media (Corning #10-080-CV) supplemented with 10% FBS, 2 mM L-Glutamine and 0.4 mg/mL Geneticin.
To examine the effects of ghrelin system components (4- and/or 24 h-incubation) on pituitary hormone release from primary pituitary adenoma and/or AtT-20 cell line, 100,000–200,000 cell/well were used. As previously reported, hormone concentrations were measured in the culture media derived from human samples according to the pituitary adenoma type using commercial ELISAs [growth hormone, GH; adrenocorticotropin, ACTH; and prolactin, PRL (reference numbers: EIA-3552, EIA-3647 and EIA-1291, respectively; DRG, Mountainside, NJ, USA)] following the manufacturer's instructions. All the information regarding specificity, detectability, and reproducibility for each of the assays can be accessed at the web site of the company.

PRL-omas = experiment: cell viability of PRL-oma primary cultures, peptide treatment; type: cell-based, human; conditions: 100 nM, time not specified in text (24-, 48- and/or 72-h), alamar-blue, n = 2–3
Procedure: as §3, §4

CCCCCCCC(=O)OC[C@H](NC(=O)[C@H](CO)NC(=O)CN)C(=O)N[C@@H](Cc1ccccc1)C(=O)N[C@@H](CC(C)C)C(=O)N[C@@H](CO)C(=O)N1CCC[C@H]1C(=O)N[C@@H](CCC(=O)O)C(=O)N[C@@H](Cc1c[nH]cn1)C(=O)N[C@@H](CCC(N)=O)C(=O)N[C@@H](CCCNC(=N)N)C(=O)N[C@H](C(=O)N[C@@H](CCC(N)=O)C(=O)N[C@@H](CCC(N)=O)C(=O)N[C@@H](CCCNC(=N)N)C(=O)N[C@@H](CCCCN)C(=O)N[C@@H](CCC(=O)O)C(=O)N[C@@H](CO)C(=O)N[C@@H](CCCCN)C(=O)N[C@@H](CCCCN)C(=O)N1CCC[C@H]1C(=O)N1CCC[C@H]1C(=O)N[C@@H](C)C(=O)N[C@@H](CCCCN)C(=O)N[C@@H](CC(C)C)C(=O)N[C@@H](CCC(N)=O)C(=O)N1CCC[C@H]1C(=O)N[C@@H](CCCNC(=N)N)C(=O)O)C(C)C [AG]
GH secretion (GH-omas): similarly and significantly, increased GH secretion; also recorded: promoted GH secretion
cell viability (pituitary adenoma cells): increased cell viability in vitro in all pituitary adenoma subtypes
apoptotic rate [1]: did not affect the apoptotic rate
cell viability (ACTH-omas [2]): increased cell viability
ACTH release (ACTH-omas [3]): able to elicit an effect on ACTH release
p-ERK1/2 levels (p-ERK1/2): clear increase; also recorded: increased both, p-ERK1/2 as well as p-Akt, levels
cell viability (NFPAs; 24 h): reaching significant levels
cell viability (NFPAs; time not specified in text (24-, 48- and/or 72-h)): modest but consistent increments in cell viability; also recorded: increased NFPA cells viability
ACTH secretion (ACTH-omas [4]): significantly increased ACTH secretion
basal ACTH release (AtT-20 cell line): did not significantly alter basal ACTH release
cell viability (PRL-omas): significant increases
